Converted amounts (≈) assume the structure as drawn.
What was measured:
Staphylococcus aureus [1] = assay: Antibacterial activity against methicillin-sensitive Staphylococcus aureus ATCC 29213 by agar dilution method; type: functional
Staphylococcus aureus [2] = assay: Antibacterial activity against methicillin-resistant Staphylococcus aureus 09-13 by agar dilution method; type: functional
[3] = tested on: Staphylococcus epidermidis; assay: Antibacterial activity against methicillin-sensitive Staphylococcus epidermidis ATCC 12228 by agar dilution method; type: functional
[4] = tested on: Staphylococcus epidermidis; assay: Antibacterial activity against methicillin-resistant Staphylococcus epidermidis 09-3 by agar dilution method; type: functional
Enterococcus faecalis [5] = assay: Antibacterial activity against vancomycin-sensitive Enterococcus faecalis ATCC 29212 by agar dilution method; type: functional
Enterococcus faecalis [6] = assay: Antibacterial activity against vancomycin-resistant Enterococcus faecalis 09-9 by agar dilution method; type: functional
Enterococcus faecium [7] = assay: Antibacterial activity against vancomycin-resistant Enterococcus faecium ATCC 700221 by agar dilution method; type: functional
Escherichia coli [8] = assay: Antibacterial activity against extended-spectrum beta-lactamase-negative Escherichia coli ATCC 25922 by agar dilution method; type: functional
Escherichia coli [9] = assay: Antibacterial activity against extended-spectrum beta-lactamase-positive Escherichia coli 09-1 by agar dilution method; type: functional
Klebsiella pneumoniae [10] = assay: Antibacterial activity against extended-spectrum beta-lactamase-negative Klebsiella pneumoniae 7 by agar dilution method; type: functional
Klebsiella pneumoniae [11] = assay: Antibacterial activity against extended-spectrum beta-lactamase-positive Klebsiella pneumoniae 09-25 by agar dilution method; type: functional
Klebsiella pneumoniae [12] = assay: Antibacterial activity against Klebsiella pneumoniae ATCC BAA-2146 expressing NDM-1 by agar dilution method; type: functional
[13] = Cytotoxicity against HEK293T cells after 48 hrs by MTS assay; type: cell-based, HEK-293T; details: human
Enterococcus faecium [14] = assay: Antibacterial activity against vancomycin-sensitive Enterococcus faecium 09-10 by agar dilution method; type: functional
Staphylococcus aureus [15] = assay: Antibacterial activity against methicillin-resistant Staphylococcus aureus ATCC 33591 by agar dilution method; type: functional
Staphylococcus aureus [16] = assay: Antibacterial activity against methicillin-sensitive Staphylococcus aureus 15 by agar dilution method; type: functional
Staphylococcus aureus [17] = assay: Antibacterial activity against methicillin-sensitive Staphylococcus aureus 09-6 by agar dilution method; type: functional
[18] = tested on: Staphylococcus epidermidis; assay: Antibacterial activity against methicillin-sensitive Staphylococcus epidermidis 09-9 by agar dilution method; type: functional
Enterococcus faecalis [19] = assay: Antibacterial activity against vancomycin-resistant Enterococcus faecalis ATCC 51299 by agar dilution method; type: functional
Enterococcus faecalis [20] = assay: Antibacterial activity against vancomycin-sensitive Enterococcus faecalis 09-8 by agar dilution method; type: functional
Enterococcus faecium [21] = assay: Antibacterial activity against vancomycin-resistant Enterococcus faecium 05-8 by agar dilution method; type: functional
Escherichia coli [22] = assay: Antibacterial activity against extended-spectrum beta-lactamase-negative Escherichia coli 1515 by agar dilution method; type: functional
Escherichia coli [23] = assay: Antibacterial activity against extended-spectrum beta-lactamase-negative Escherichia coli 09-20 by agar dilution method; type: functional
Klebsiella pneumoniae [24] = assay: Antibacterial activity against extended-spectrum beta-lactamase-positive Klebsiella pneumoniae ATCC 700603 by agar dilution method; type: functional
Klebsiella pneumoniae [25] = assay: Antibacterial activity against extended-spectrum beta-lactamase-negative Klebsiella pneumoniae 09-8 by agar dilution method; type: functional
Pseudomonas aeruginosa [26] = assay: Antibacterial activity against Pseudomonas aeruginosa ATCC 27853 by agar dilution method; type: functional
Pseudomonas aeruginosa [27] = assay: Antibacterial activity against Pseudomonas aeruginosa PAO1 by agar dilution method; type: functional
Pseudomonas aeruginosa [28] = assay: Antibacterial activity against Pseudomonas aeruginosa 09-14 by agar dilution method; type: functional
[29] = tested on: Acinetobacter calcoaceticus; assay: Antibacterial activity against Acinetobacter calcoaceticus ATCC 19606 by agar dilution method; type: functional
Enterobacter cloacae = assay: Antibacterial activity against Enterobacter cloacae 45301 by agar dilution method; type: functional
Klebsiella aerogenes = assay: Antibacterial activity against Enterobacter aerogenes 45102 by agar dilution method; type: functional
Serratia marcescens = assay: Antibacterial activity against Serratia marcescens 41002 by agar dilution method; type: functional
Morganella morganii = assay: Antibacterial activity against Morganella morganii ATCC 25830 by agar dilution method; type: functional
Providencia rettgeri = assay: Antibacterial activity against Providencia rettgeri ATCC 31052 by agar dilution method; type: functional
Proteus vulgaris = assay: Antibacterial activity against Proteus vulgaris ATCC 29905 by agar dilution method; type: functional
Proteus mirabilis = assay: Antibacterial activity against Proteus mirabilis 09-1 by agar dilution method; type: functional
Salmonella typhi = assay: Antibacterial activity against Salmonella typhi H901 by agar dilution method; type: functional, Salmonella enterica subsp. enterica serovar Typhi; details: Salmonella enterica
Citrobacter freundii = assay: Antibacterial activity against Citrobacter freundii ATCC 43864 by agar dilution method; type: functional

Row | SMILES | MIC (Staphylococcus aureus [1]) [µg/mL] | MIC (Staphylococcus aureus [2]) [µg/mL] | MIC [3] [µg/mL] | MIC [4] [µg/mL] | MIC (Enterococcus faecalis [5]) [µg/mL] | MIC (Enterococcus faecalis [6]) [µg/mL] | MIC (Enterococcus faecium [7]) [µg/mL] | MIC (Escherichia coli [8]) [µg/mL] | MIC (Escherichia coli [9]) [µg/mL] | MIC (Klebsiella pneumoniae [11]) [µg/mL] | MIC (Klebsiella pneumoniae [12]) [µg/mL] | MIC (Enterococcus faecium [14]) [µg/mL] | MIC (Staphylococcus aureus [15]) [µg/mL] | MIC (Staphylococcus aureus [16]) [µg/mL] | MIC (Staphylococcus aureus [17]) [µg/mL] | MIC [18] [µg/mL] | MIC (Enterococcus faecalis [19]) [µg/mL] | MIC (Enterococcus faecalis [20]) [µg/mL] | MIC (Enterococcus faecium [21]) [µg/mL] | MIC (Klebsiella pneumoniae [25]) [µg/mL] | other results
1 | CC1CCN(C(=N)c2ccc3cc(-c4ccc(Oc5ccc(-c6cc7ccc(C(=N)N8CCC(C)CC8)cc7[nH]6)cc5)cc4)[nH]c3c2)CC1 | 16 (≈ 24.7 µM) | 16 (≈ 24.7 µM) | 4 (≈ 6.16 µM) | 8 (≈ 12.3 µM) | 64 (≈ 98.6 µM) | 128 (≈ 197 µM) | 16 (≈ 24.7 µM) | > 128 | > 128 | > 128 | > 128 | 128 (≈ 197 µM) | 16 (≈ 24.7 µM) | 16 (≈ 24.7 µM) | 16 (≈ 24.7 µM) | 8 (≈ 12.3 µM) | 128 (≈ 197 µM) | 128 (≈ 197 µM) | 128 (≈ 197 µM) | > 128 | MIC (Klebsiella pneumoniae [10]): > 128 µg/mL; CC50 at 48 h [13]: 3.2 µg/mL (≈ 4.93 µM); MIC (Escherichia coli [22]): > 128 µg/mL; MIC (Escherichia coli [23]): > 128 µg/mL; MIC (Klebsiella pneumoniae [24]): > 128 µg/mL; MIC (Pseudomonas aeruginosa [26]): > 128 µg/mL; MIC (Pseudomonas aeruginosa [27]): > 128 µg/mL; MIC (Pseudomonas aeruginosa [28]): > 128 µg/mL; MIC [29]: > 128 µg/mL; MIC (Enterobacter cloacae): > 128 µg/mL; MIC (Klebsiella aerogenes): > 128 µg/mL; MIC (Serratia marcescens): > 128 µg/mL; MIC (Morganella morganii): > 128 µg/mL; MIC (Providencia rettgeri): > 128 µg/mL; MIC (Proteus vulgaris): > 128 µg/mL; MIC (Proteus mirabilis): > 128 µg/mL; MIC (Salmonella typhi): > 128 µg/mL; MIC (Citrobacter freundii): > 128 µg/mL
2 | N=C(NC1CCC1)c1ccc2cc(-c3ccc(Oc4ccc(-c5cc6ccc(C(=N)NC7CCC7)cc6[nH]5)cc4)cc3)[nH]c2c1 | 64 (≈ 108 µM) | 64 (≈ 108 µM) | 8 (≈ 13.5 µM) | 16 (≈ 27 µM) | 64 (≈ 108 µM) | 64 (≈ 108 µM) | 32 (≈ 54 µM) | > 128 | > 128 | > 128 | > 128 | 64 (≈ 108 µM) | 64 (≈ 108 µM) | 64 (≈ 108 µM) | 64 (≈ 108 µM) | 8 (≈ 13.5 µM) | 64 (≈ 108 µM) | 64 (≈ 108 µM) | > 128 | > 128 | MIC (Klebsiella pneumoniae [10]): > 128 µg/mL; CC50 at 48 h [13]: 32.6 µg/mL (≈ 55 µM); MIC (Escherichia coli [22]): > 128 µg/mL; MIC (Escherichia coli [23]): > 128 µg/mL; MIC (Klebsiella pneumoniae [24]): > 128 µg/mL; MIC (Pseudomonas aeruginosa [26]): > 128 µg/mL; MIC (Pseudomonas aeruginosa [27]): > 128 µg/mL; MIC (Pseudomonas aeruginosa [28]): > 128 µg/mL; MIC [29]: > 128 µg/mL; MIC (Enterobacter cloacae): > 128 µg/mL; MIC (Klebsiella aerogenes): > 128 µg/mL; MIC (Serratia marcescens): > 128 µg/mL; MIC (Morganella morganii): > 128 µg/mL; MIC (Providencia rettgeri): > 128 µg/mL; MIC (Proteus vulgaris): > 128 µg/mL; MIC (Proteus mirabilis): > 128 µg/mL; MIC (Salmonella typhi): > 128 µg/mL; MIC (Citrobacter freundii): > 128 µg/mL
3 | N=C(NC1CCCCC1)c1ccc2cc(-c3ccc(Oc4ccc(-c5cc6ccc(C(=N)NC7CCCCC7)cc6[nH]5)cc4)cc3)[nH]c2c1 | 4 (≈ 6.16 µM) | 2 (≈ 3.08 µM) | 1 (≈ 1.54 µM) | 2 (≈ 3.08 µM) | 4 (≈ 6.16 µM) | 8 (≈ 12.3 µM) | 2 (≈ 3.08 µM) | 64 (≈ 98.6 µM) | 128 (≈ 197 µM) | 128 (≈ 197 µM) | 128 (≈ 197 µM) | 8 (≈ 12.3 µM) | 2 (≈ 3.08 µM) | 2 (≈ 3.08 µM) | 4 (≈ 6.16 µM) | 2 (≈ 3.08 µM) | 4 (≈ 6.16 µM) | 4 (≈ 6.16 µM) | 4 (≈ 6.16 µM) | 128 (≈ 197 µM) | MIC (Klebsiella pneumoniae [10]): 128 µg/mL (≈ 197 µM); CC50 at 48 h [13]: 59.2 µg/mL (≈ 91.2 µM); MIC (Escherichia coli [22]): 128 µg/mL (≈ 197 µM); MIC (Escherichia coli [23]): 128 µg/mL (≈ 197 µM); MIC (Klebsiella pneumoniae [24]): > 128 µg/mL; MIC (Pseudomonas aeruginosa [26]): > 128 µg/mL; MIC (Pseudomonas aeruginosa [27]): > 128 µg/mL; MIC (Pseudomonas aeruginosa [28]): > 128 µg/mL; MIC [29]: 64 µg/mL (≈ 98.6 µM); MIC (Enterobacter cloacae): 128 µg/mL (≈ 197 µM); MIC (Klebsiella aerogenes): 128 µg/mL (≈ 197 µM); MIC (Serratia marcescens): 128 µg/mL (≈ 197 µM); MIC (Morganella morganii): 64 µg/mL (≈ 98.6 µM); MIC (Providencia rettgeri): > 128 µg/mL; MIC (Proteus vulgaris): 128 µg/mL (≈ 197 µM); MIC (Proteus mirabilis): > 128 µg/mL; MIC (Salmonella typhi): 64 µg/mL (≈ 98.6 µM); MIC (Citrobacter freundii): 128 µg/mL (≈ 197 µM)
4 | C[C@H]1COc2c(N3CCN(C)CC3)c(F)cc3c(=O)c(C(=O)O)cn1c23.C[C@H]1COc2c(N3CCN(C)CC3)c(F)cc3c(=O)c(C(=O)O)cn1c23.O [LEVOFLOXACIN] | 0.125 | 32 | 0.25 | 8 | 0.5 | 128 | 64 | 0.03 to 0.06 | 16 | 4 | > 128 | 64 | 0.125 | 0.125 | 0.25 | 8 | 0.5 | 1 | 64 | ≤ 0.03 | MIC [29]: 0.25 µg/mL; MIC (Enterobacter cloacae): 0.06 µg/mL; MIC (Klebsiella aerogenes): 0.06 µg/mL; MIC (Serratia marcescens): 0.25 µg/mL; MIC (Morganella morganii): ≤ 0.03 µg/mL; MIC (Providencia rettgeri): ≤ 0.03 µg/mL; MIC (Proteus vulgaris): ≤ 0.03 µg/mL; MIC (Proteus mirabilis): 2 µg/mL; MIC (Salmonella typhi): ≤ 0.03 µg/mL; MIC (Citrobacter freundii): ≤ 0.03 µg/mL

— ChEMBL document CHEMBL4002623, “Synthesis and in vitro activity of dicationic indolyl diphenyl ethers as novel potent antibiotic agents against drug-resistant bacteria” (Bioorg Med Chem Lett, 2017)
